Measured values from patent US8507674B2, “Quorum sensing inhibitor” (The University of Tokyo, priority 2007, dated 2013).

Tests used:
Burkholderia glumae [1] = test: Test Example 3: number of microorganisms versus culturing time and concentration; type: cell-based; conditions: 80 μM or 100 μM, 20 to 40 hours culturing, FIG. 2
Protocol: Burkholderia glumae was inoculated into an LB culture medium, and cultured at 37° C. overnight. The thus-obtained culture solution was subjected to bacterial collection using a centrifuge, washed with an LB culture medium twice using a fresh LB culture medium each time. To the bacterial cell a fresh LB culture medium was added to prepare a culture suspension of about 3.0×10^5 cfu/mL. Thereafter, Compound (1) produced in Production Example 1 was added to the culture suspension in such a manner that its final concentration became a predetermined value (i.e., 0 μM, 80 μM, or 100 μM), followed by shake culturing for 40 hours. The number of microorganisms in the culture solution after a predetermined time (i.e., 20, 24, 28, 32, 36 and 40 hours) was obtained by the following procedure. Specifically, a portion of the culture solution was removed and diluted 1,000-fold, and then seeded to an LB culture medium agar plate. The number of colonies was counted to obtain the number of microorganisms.

Burkholderia glumae [2] = test: Test Example 4: amount of toxoflavin produced in culture solution; type: cell-based; conditions: 0, 20, 40, 60, 80 or 100 μM, shake culturing 20 hours, FIG. 3
Protocol: (§1) Burkholderia glumae was inoculated into an LB culture medium, and cultured at 37° C. overnight. The thus-obtained culture solution was subjected to bacterial collection using a centrifuge, and washed with an LB culture medium twice using a fresh LB culture medium each time. To the bacterial cell a fresh LB culture medium was added, and then Compound (1) produced in Production Example 1 was added thereto in such a manner that its final concentration became a predetermined value (i.e., 0, 20, 40, 60, 80 or 100 μM), followed by shake culturing for 20 hours. The amount of toxoflavin produced by the bacterial cell in the culture solution was obtained by the following procedure.
Each culture solution was filtered by 0.22-μm membrane filter, and 1 mL of the filtrate was isolated. One mL of chloroform was added to the filtrate, followed by extraction. The thus-obtained chloroform layer was concentrated under reduced pressure, and an 80% (V/V) an aqueous methanol solution was added to and dissolved in the residue. The absorbance (at 260 nm) of the solution was measured, and the toxin doses were calculated from the calibration curve, which was obtained using a chemically synthesized standard toxin.

Burkholderia glumae [3] = test: Test Example 5: onset of infection on rice, test liquid sprayed before infection; type: in vivo; conditions: for percentage of flower clusters with score 0: score 0 = less than 0.1% diseased; for percentage of flower clusters with score 0 / percentage of flower clusters with score 1 / percentage of flower clusters with score 2 / percentage of flower clusters with score 3 / percentage of flower clusters with score 4 / percentage of flower clusters with score 5: rice, 7 days; for percentage of flower clusters with score 1: score 1 = 0.1-20% diseased; for percentage of flower clusters with score 2: score 2 = 20-40% diseased; for percentage of flower clusters with score 3: score 3 = 40-60% diseased; for percentage of flower clusters with score 4: score 4 = 60-80% diseased; for percentage of flower clusters with score 5: score 5 = 80-100% diseased
Protocol: A dimethyl formamide solution (1,000 ppm) of Compound (1) was diluted with water to have a predetermined concentration (50, 100 or 200 μM) to prepare a test liquid. In a separate procedure, Burkholderia glumae were seeded to an LB culture medium and cultured overnight at 37° C., preparing a culture solution for infection.
Each test liquid (10 mL) was sprayed onto Korean rice (Milyang 23) raised in a hothouse until the flowering stage. The culture solution for infection was sprayed onto the rice one hour after the application of the test liquid. After cultivation for seven days, the onset of Burkholderia glumae infection on the rice was evaluated.
The evaluation was conducted by picking an ear from each plant, making a total of three ears. In each flower cluster (grain), the percentage of the portion that suffered from the onset of disease (i.e., the portion that turned brown) caused by the toxoflavin produced by Burkholderia glumae was visually observed and scored based on the scale shown below. The percentage of the total flower clusters was obtained and scored to indicate the onset of the disease.
The percentage that suffered from the onset of disease:
Not less than 0.1% and not greater than 20%: 1
Not less than 20% and not greater than 40%: 2
Not less than 40% and not greater than 60%: 3
Not less than 60% and not greater than 80%: 4
In this evaluation, three flower clusters (grains) having the same conditions were prepared, and reproducibility was confirmed by repeating the same evaluation three times. The same evaluation was also conducted as a comparative test except that water was used instead of the test liquid. Further, the same evaluation was conducted to serve as a blank except that water was used instead of both the test liquid and the culture solution for infection.

Burkholderia glumae [4] = test: Test Example 9: amount of toxoflavin produced in culture solution, with comparative compound; type: cell-based; conditions: 0, 20, 40, 60, 80 or 100 μM, shake culturing 20 hours, FIG. 6
Protocol: as §1, with “medium (produced by BD (Difco LB Broth: containing tryptone (10.0 g), yeast extract (5.0 g), and sodium chloride (10.0 g)),” for “medium,”
Each culture solution was filtered by a 0.22-μm membrane filter, and 1 mL of the filtrate was isolated. One mL of chloroform was added to the filtrate, followed by extraction. The thus-obtained chloroform layer was concentrated under reduced pressure, and an 80% (V/V) an aqueous methanol solution was added to and dissolved in the residue. The absorbance (at 260 nm) of the solution was measured, and the toxin doses were calculated from the calibration curve, which was obtained using chemically synthesized standard toxin. […]

[5] = 50 μM sprayed 1 h before infection
[6] = 100 μM sprayed 1 h before infection
[7] = 200 μM sprayed 1 h before infection

Question: With `CCCc1cc(=O)n2cccc(O)c2n1` [Compound (1), 2-n-propyl-9-hydroxy-4H-pyrid[1,2-a]pyrimidin-4-one] as the compound, how does the “control effect against Burkholderia glumae (number of microorganisms)” value (Burkholderia glumae [1]) read?
Answer: excellent control effect

Question: What about the “toxin doses produced by bacteria (toxoflavin)” value (Burkholderia glumae [2]) of the same compound?
Answer: remarkably decreased

Question: What about the “percentage of flower clusters with score 0” value (Burkholderia glumae [3]; [5]) of the same compound?
Answer: 68%

Question: What about the “percentage of flower clusters with score 0” value (Burkholderia glumae [3]; [6]) of the same compound?
Answer: 80%

Question: And the “percentage of flower clusters with score 0” value (Burkholderia glumae [3]; [7])?
Answer: 82%

Question: What about the “percentage of flower clusters with score 1” value (Burkholderia glumae [3]; [5]) of the same compound?
Answer: 7%

Question: And the “percentage of flower clusters with score 1” value (Burkholderia glumae [3]; [6])?
Answer: 6%

Question: What about the “percentage of flower clusters with score 1” value (Burkholderia glumae [3]; [7]) of the same compound?
Answer: 6%

Question: And the “percentage of flower clusters with score 2” value (Burkholderia glumae [3]; [5])?
Answer: 6%

Question: And the “percentage of flower clusters with score 2” value (Burkholderia glumae [3]; [6])?
Answer: 4%

Question: And the “percentage of flower clusters with score 2” value (Burkholderia glumae [3]; [7])?
Answer: 6%

Question: And the “percentage of flower clusters with score 3” value (Burkholderia glumae [3]; [5])?
Answer: 7%

Question: What about the “percentage of flower clusters with score 3” value (Burkholderia glumae [3]; [6]) of the same compound?
Answer: 3%

Question: What about the “percentage of flower clusters with score 3” value (Burkholderia glumae [3]; [7]) of the same compound?
Answer: 2%

Question: And the “percentage of flower clusters with score 4” value (Burkholderia glumae [3]; [5])?
Answer: 6%

Question: What about the “percentage of flower clusters with score 4” value (Burkholderia glumae [3]; [6]) of the same compound?
Answer: 3%

Question: What about the “percentage of flower clusters with score 4” value (Burkholderia glumae [3]; [7]) of the same compound?
Answer: 2%

Question: What about the “percentage of flower clusters with score 5” value (Burkholderia glumae [3]; [5]) of the same compound?
Answer: 6%

Question: And the “percentage of flower clusters with score 5” value (Burkholderia glumae [3]; [6])?
Answer: 4%

Question: What about the “percentage of flower clusters with score 5” value (Burkholderia glumae [3]; [7]) of the same compound?
Answer: 2%

Question: And the “onset of Burkholderia glumae on rice” value (Burkholderia glumae [3]; test liquid 50, 100 or 200 μM sprayed before the culture solution for infection)?
Answer: prevented

Question: And the “toxin doses produced by bacteria (toxoflavin)” value (Burkholderia glumae [4])?
Answer: remarkably decreased
